According to patent US6930123B2, “sPLA2 inhibitors” (Eli Lilly and Company, priority 2000, dated 2005):

What was measured:
[1] = molecular target: T1, recombinant human secreted phospholipase A2 (Homo sapiens, UniProt P14555); assay: chromogenic assay for inhibitors of recombinant human secreted phospholipase A2; format: biochemical; conditions: diheptanoyl thio-PC substrate, pH 7.5, 40° C. for 30 minutes, absorbance at 405 nanometers, titrated in triplicate
T1 sequence (P14555 21-144): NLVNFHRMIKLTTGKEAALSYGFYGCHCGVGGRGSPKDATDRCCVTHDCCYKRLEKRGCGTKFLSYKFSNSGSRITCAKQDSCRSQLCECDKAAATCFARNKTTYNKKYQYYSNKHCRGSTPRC
Excerpt: The following chromogenic assay procedure was used to identify and evaluate inhibitors of recombinant human secreted phospholipase A2. The assay described herein has been adapted for high volume screening using 96 well microtiter plates. A general description of this assay method is found in the article, “Analysis of Human Synovial Fluid Phospholipase A2 on Short Chain Phosphatidylcholine-Mixed Micelles: Development of a Spectrophotometric Assay Suitable for a Microtiterplate Reader”, by Laure J. Reynolds, Lori L. Hughes, and Edward A Dennis, Analytical Biochemistry, 204, pp. 190-197, 1992 (the disclosure of which is incorporated herein by reference):
A measured volume of racemic dipheptanoyl thio PC supplied in chloroform at a concentration of 100 mg/ml is taken to dryness and redissolved in 10 millimolar TRITON X-100™ nonionic detergent aqueous solution. Reaction Buffer is added to the solution, then DTNB to give the Reaction Mixture.
The reaction mixture thus obtained contains 1 mM diheptanoly thio-PC substrate, 0.29 mm Triton X-100™ detergent, and 0.12 mm DTMB in a buffered aqueous solution at pH 7.5.
• 1. Add 0.2 ml reaction mixture to all wells; • 2. Add 10 ul test compound (or solvent blank) to appropriate wells, mix 20 seconds; • 3. Add 50 nanograms of sPLA2 (10 microliters) to appropriate wells; • 4. Incubate plate at 40° C. for 30 minutes; • 5. Read absorbance of wells at 405 nanometers with an automatic plate reader.
Tests were done in triplicate. Typically, compounds were tested at a final concentration of 5 ug/ml. […] Lack of color development at 405 nanometers evidenced inhibition. Compounds initially found to be active were re-assayed to confirm their activity and, if sufficiently active, IC50 values were determined. […] In all cases, % inhibition measured at 405 nanometers generated by enzyme reactions containing inhibitors relative to the uninhibited control reactions was determined. […] IC50 values were determined by plotting log concentration versus inhibition values in the range from 10-90% inhibition.

IC50 [1] | melting point | Compound
14.3 µM |  | CCc1c(C(=O)C(N)=O)c2c(OCC(=O)OCc3ccccc3)c3ccccc3cc2n1Cc1ccccc1 [Example 2, 2-[[3-(2-amino-1,2-dioxoethyl)-1-benzyl-2-ethyl-1H-benz[f]indol-4-yl]oxy]acetic acid benzyl ester]
1.06 µM | 243 to 253 °C (dec.) | CCc1c(C(=O)C(N)=O)c2c(OCC(=O)O)c3ccccc3cc2n1Cc1ccccc1 [Example 3, 2-[[3-(2-amino-1,2-dioxoethyl)-1-benzyl-2-ethyl-1H-benz[f]indol-4-yl]oxy]acetic acid]
1.3 µM |  | CCOC(=O)COc1c2ccccc2cc2c1c(C(=O)C(N)=O)c(CC)n2Cc1ccccc1 [Example 1, 2-[[3-(2-amino-1,2-dioxoethyl)-1-benzyl-2-ethyl-1H-benz[f]indol-4-yl]oxy]acetic acid ethyl ester]
